Data reported in paper PMC8360061, “Search for the Active Ingredients from a 2‐Aminothiazole DMSO Stock Solution with Antimalarial Activity” (Chemmedchem, 2021).
Where two headings read alike, the source gives them in different places.

Legend:
HepG2 = assay: Cytotoxicity assay HepG2; type: cell-based; conditions: Homo sapiens, old sample before becoming aware of the decomposition, read-out: %-inh. HepG2
Method: (§1) Due to the nature of the study, some decomposition samples w ere only tested once and thus, for some formal standard error, […]
(§2) For the final purified compounds, replicates were measured and standard deviation was calculated at least from two replicates. […]
(§3) 1.3 General Procedure for Cytotoxicity Assay
(§4) Cytotoxicity assays based on the human lung adenocarcinoma (A549), human embryonic kidney (Hek293) and human hepatocellular carcinoma (HepG2) cell lines were performed as described previously.[7] […]

EcIspE = molecular target: T1, EcIspE (Escherichia coli, UniProt P62615); assay: EcIspE enzymatic assay (coupled to PK/LDH); type: biochemical
T1 construct: made in house
T1 sequence (P62615 whole entry): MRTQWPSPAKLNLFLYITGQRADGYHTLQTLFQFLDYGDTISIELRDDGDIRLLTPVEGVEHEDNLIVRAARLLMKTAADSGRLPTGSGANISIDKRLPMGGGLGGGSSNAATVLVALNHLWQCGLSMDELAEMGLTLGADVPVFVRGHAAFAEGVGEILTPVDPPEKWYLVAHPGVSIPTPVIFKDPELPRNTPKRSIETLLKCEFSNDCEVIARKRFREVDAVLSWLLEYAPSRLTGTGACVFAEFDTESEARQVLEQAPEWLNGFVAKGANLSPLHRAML
Source text: (§5) Another approach to address this issue is to perform the IspE assay with one or several orthologues of PfIspE. […] The IspE assay setup was identical for both Pf and EcIspE orthologs except for the target enzyme used. One of the setup requirements was that the enzymatic activity of the auxiliary enzymes PK/LDH exceeded the activity of the target enzyme IspE not less than a factor of ten.[10] We investigated, if the inhibition of the auxiliary enzymes may substantially influence the IC50 values obtained from the coupled IspE assay.
(§6) 1.1 General Procedure for Enzymatic Assay
(§7) The cloning, expression and purification of Plasmodium falciparum[1] and Escherichia coli[2,3] and their subsequent assays followed the previously reported procedures .[1] In some specified cases, the tested compound was dissolved in methanol or acetonitrile for the assay .
as §1, §2
(§8) 2.) Decomposition Study Procedure
(§9) All reagents and solvents were of commercial quality and used without further purification.
Low resolution mass analytics and purity controls were carried out using an Ultimate 3000-ISQ liquid-chromatography mass spectrometry (LCMS) system (Thermo Fisher […]

HEK293 = assay: Cytotoxicity assay HEK293; type: cell-based; conditions: Homo sapiens, old sample before becoming aware of the decomposition, read-out: %-inh. HEK293
Method: as §1, §2, §3, §4

[1] = tested on: Plasmodium falciparum drug-sensitive NF54; assay: Antimalarial assay, [3H]hypoxanthine incorporation; type: cell-based; conditions: for IC50: Plasmodium falciparum, read-out: PfNF54 IC50
Method: as §1
For the final purified compounds, replicates were measured and standard deviation was calculated at least from two replicates.
1.2 General Procedure for Antimalarial Assay
Plasmodium falciparum drug-sensitive NF54 (airport strain from The Netherlands, provided by F. Hoffmann-La Roche Ltd) was cultivated in a variation of the medium consisting of RPMI 1640 supplemented with 0.5% ALBUMAX® II, 25 mM Hepes, 25 mM NaHCO3 (pH 7.3), 0.36 mM hypoxanthine, and 100 μg/mL neomycin, as previously described.[4,5] Human erythrocytes served as host cells.
Cultures were maintained in an atmosphere of 3% O2, 4% CO2, and 93% N2 in humidified modular chambers at 37 °C. Compounds were dissolved in MeOH (10 mM), diluted in hypoxanthine-free culture medium and titrated in duplicates over a 64-fold range in 96 well plates. Infected erythrocytes (1.25% final hematocrit and 0.3% final parasitemia) were added into the wells. After 48 h incubation, 0.25 μCi of [3H]hypoxanthine was added per well and plates were incubated for an additional 24 h. Parasites were harvested onto glass-fiber filters and radioactivity was counted using a Betaplate liquid scintillation counter (Wallac, Zurich). Chloroquine […]
The results were recorded and expressed as a percentage of the untreated controls. Fifty percent inhibitory concentrations (IC50) were estimated by linear interpolation.[6] […]

PfIspE = PfIspE (Plasmodium falciparum, UniProt Q8I470); assay: PfIspE enzymatic assay (coupled to PK/LDH, NADH oxidation at 340 nm); type: biochemical
PfIspE, sequence (Q8I470 entry or part of it): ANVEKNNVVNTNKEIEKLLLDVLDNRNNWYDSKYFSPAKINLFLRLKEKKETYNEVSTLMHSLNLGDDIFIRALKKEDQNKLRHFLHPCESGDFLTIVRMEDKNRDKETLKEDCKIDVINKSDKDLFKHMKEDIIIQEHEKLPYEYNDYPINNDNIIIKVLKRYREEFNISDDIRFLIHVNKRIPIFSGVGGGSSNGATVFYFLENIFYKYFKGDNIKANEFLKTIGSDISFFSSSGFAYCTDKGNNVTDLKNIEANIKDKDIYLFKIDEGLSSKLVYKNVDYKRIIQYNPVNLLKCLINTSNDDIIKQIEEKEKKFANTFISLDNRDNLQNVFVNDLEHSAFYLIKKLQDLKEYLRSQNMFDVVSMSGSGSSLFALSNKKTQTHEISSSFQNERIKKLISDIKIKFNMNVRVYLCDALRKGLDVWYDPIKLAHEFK
Method: Firstly, we performed a temperature‐dependent decomposition study of compound 1 at 10 mM concentration in DMSO at room temperature (RT), +4 °C and −20 °C (SI, Section 2.3). […] Besides visual inspection of the colour changes of the test sample (see Table 2), the decomposition was monitored by HRMS and NMR spectroscopy. […] Furthermore, all three samples were tested for their inhibitory activity against PfIspE after the incubation period. […] In the IspE assay, the activity of the target enzyme is coupled to the oxidation of NADH (which can be followed spectrophotometrically at 340 nm) via a cascade of the auxiliary enzymes pyruvate kinase and lactate dehydrogenase (PK/LDH).[10] […] Three samples of compound 1 were tested in PK/LDH assay (Table 2).
as §5, §6, §7, §1, §2, §8, §9

A549 = assay: Cytotoxicity assay A549; type: cell-based; conditions: Homo sapiens, old sample before becoming aware of the decomposition, read-out: %-inh. A549
Method: as §1, §2, §3, §4

[2] = 10 mM DMSO stock stored at +4 °C, measured after 3 months
[3] = 10 mM DMSO stock stored at RT, measured after 3 months
[4] = 10 mM DMSO stock stored at −20 °C, measured after 3 months
[5] = analytical sample, DMSO at RT, 0 days of incubation, dissolved in methanol shortly before the assay
[6] = analytical sample, DMSO at RT, 1 day of incubation, dissolved in methanol shortly before the assay
[7] = analytical sample, DMSO at RT, 2 days of incubation, dissolved in methanol shortly before the assay
[8] = analytical sample, DMSO at RT, 3 days of incubation, dissolved in methanol shortly before the assay
[9] = analytical sample, DMSO at RT, 4 days of incubation, dissolved in methanol shortly before the assay
[10] = old decomposed sample, control run at the same time as the temperature study
[11] = fresh batch, freshly prepared stock solution

## CCn1c(C)cc(-c2csc(Nc3ccccc3C(F)(F)F)n2)c1C [Compound 1]
HepG2
  inhibition at 100 µM: 44%
EcIspE; [2]
  IC50: 71 ± 10 µM
EcIspE; [3]
  IC50: 101 ± 14 µM
EcIspE; [4]
  IC50: > 500 µM
EcIspE; [5]
  IC50: > 500 µM
EcIspE; [6]
  IC50: > 500 µM
EcIspE; [7]
  IC50: > 500 µM
EcIspE; [8]
  IC50: 397 µM
EcIspE; [9]
  IC50: 75 ± 16 µM
EcIspE; fractions of second purification, dissolved in ACN
  IC50: > 1370 µM
EcIspE; fractions of second purification, dissolved in MeOH
  IC50: > 1370 µM
EcIspE; [10]
  IC50: 32 ± 6 µM
HEK293
  inhibition at 100 µM: 28%
[1]; NF54, 48 h, analytical sample, DMSO at RT, 2 days of incubation, dissolved in methanol shortly before the assay
  IC50: 3.5 ± 0.3 µM
[1]; NF54, 96 h, analytical sample, DMSO at RT, 4 days of incubation, dissolved in methanol shortly before the assay
  IC50: 2.7 ± 0.3 µM
[1]; NF54, fresh batch
  IC50: 7.3 ± 0.8 µM
[1]; NF54, old batch (decomposed DMSO stock)
  IC50: 0.43 ± 0.01 µM
[1]; fresh batch compared with old decomposed batch
  reduction in activity against PfNF54, fresh batch vs old batch: 17 fold
PfIspE; [2]
  IC50: 16 ± 7 µM
PfIspE; [3]
  IC50: 12 ± 4 µM
PfIspE; [4]
  IC50: > 500 µM
PfIspE; 10 mM stock in ACN at RT, 0 days of incubation
  IC50: > 500 µM
PfIspE; 10 mM stock in ACN at RT, 5 days of incubation
  IC50: > 500 µM
PfIspE; 10 mM stock in ACN at RT, 7 days of incubation
  IC50: > 500 µM
PfIspE; 10 mM stock in ACN at RT, 9 days of incubation
  IC50: > 500 µM
PfIspE; 10 mM stock in ACN at RT, 12 days of incubation
  IC50: > 500 µM
PfIspE; 10 mM stock in ACN at RT, 14 days of incubation
  IC50: > 500 µM
PfIspE; 10 mM stock in ACN at RT, 16 days of incubation
  IC50: > 500 µM
PfIspE; 10 mM stock in DMSO at RT, 0 days of incubation
  IC50: > 500 µM
PfIspE; 10 mM stock in DMSO at RT, 5 days of incubation
  IC50: 19 ± 7 µM
PfIspE; 10 mM stock in DMSO at RT, 7 days of incubation
  IC50: 24 ± 9 µM
PfIspE; 10 mM stock in DMSO at RT, 9 days of incubation
  IC50: 10 ± 4 µM
PfIspE; 10 mM stock in DMSO at RT, 12 days of incubation
  IC50: 1 ± 1 µM
PfIspE; 10 mM stock in DMSO at RT, 14 days of incubation
  IC50: 10 ± 4 µM
PfIspE; 10 mM stock in DMSO at RT, 16 days of incubation
  IC50: 11 ± 4 µM
PfIspE; 10 mM stock in MeOH at RT, 0 days of incubation
  IC50: > 500 µM
PfIspE; 10 mM stock in MeOH at RT, 5 days of incubation
  IC50: > 500 µM
PfIspE; 10 mM stock in MeOH at RT, 7 days of incubation
  IC50: > 500 µM
PfIspE; 10 mM stock in MeOH at RT, 9 days of incubation
  IC50: > 500 µM
PfIspE; 10 mM stock in MeOH at RT, 12 days of incubation
  IC50: > 500 µM
PfIspE; 10 mM stock in MeOH at RT, 14 days of incubation
  IC50: > 500 µM
PfIspE; 10 mM stock in MeOH at RT, 16 days of incubation
  IC50: > 500 µM
PfIspE; [5]
  IC50: > 500 µM
PfIspE; [6]
  IC50: > 500 µM
PfIspE; [7]
  IC50: > 500 µM
PfIspE; [8]
  IC50: 486 ± 20 µM
PfIspE; [9]
  IC50: 99 ± 23 µM
PfIspE; fractions of second purification (DMSO, RT, five days), dissolved in ACN
  IC50: > 1370 µM
PfIspE; fractions of second purification (DMSO, RT, five days), dissolved in MeOH
  IC50: > 1370 µM
PfIspE; [11]
  IC50: > 500 µM
  PfIspE IC50: no activity
PfIspE; freshly dissolved compound, in methanol shortly before the assay (Table 4 footnote b)
  IC50: > 500 µM
PfIspE; old batch (decomposed DMSO stock)
  IC50: 8 ± 2.8 µM
PfIspE; [10]
  IC50: 10 ± 3 µM
A549
  inhibition at 100 µM: -0.3%
